From patent US10925867B2, “Immunotherapeutic dosing regimens comprising pomalidomide and an anti-CS1 antibody for treating cancer” (Bristol-Myers Squibb Company, priority 2015, dated 2021)

Key:
SLAMF7 = target: T1, SLAMF7 (Homo sapiens, UniProt Q9NQ25); assay: Saturation of SLAMF7 on bone marrow plasma cells, Phase 2 study of elotuzumab and lenalidomide/dexamethasone; assay type: in vivo; conditions: doses ≥10 mg/kg
T1 construct: endogenous in cells; host or cells: bone marrow plasma (myeloma) cells from multiple myeloma subjects treated with elotuzumab plus lenalidomide/dexamethasone
Description: FIG. 7. Saturation of SLAMF7 Target on Bone Marrow Myeloma Samples from Subjects Treated in a Phase 2 Study of Elotuzumab and Lenalidomide/Dexamethasone (HuLuc63).
Following elotuzumab dosing of 10 and 20 mg/kg in combination with lenalidomide, the observed steady-state Cmin values consistently remained above 70 μg/mL, the minimum efficacious trough concentrations (Lonial et. al., J Clin Oncol. 30(16):1953-1959. (2012)). […] Given the lack of difference in efficacy, safety, PK and SLAMF7 saturation between 10 and 20 mg/kg, the 10 mg/kg weekly for the first 2 cycles followed by 20 mg/kg monthly thereafter, was selected to improve patient convenience and compliance.

[1] = Infusion reactions in Study CA204004; assay type: in vivo, human
From the text: (§1) Elotuzumab can cause infusion reactions. Infusion reactions were reported in approximately 10% of patients treated with elotuzumab, lenalidomide and dexamethasone in Study CA204004 and in 7% of patients treated with elotuzumab, bortezomib and dexamethasone in Study CA204009. All reports of infusion reaction were ≤Grade 3. Grade 3 infusion reactions occurred in 1% of patients in Study CA204004 and in no patients in Study CA204009. The most common symptoms of an infusion reaction included fever, chills and hypertension. In Study CA204004, 5% of patients required interruption of the administration of elotuzumab due to infusion reaction for a median of 25 minutes and 1% of patients discontinued due to infusion reactions. In Study CA204009, 20% of patients required interruption of the administration of elotuzumab for a median of 40 minutes and none discontinued due to infusion reactions. Of the patients who experienced an infusion reaction, 70% (23/33) in Study CA204004 and 80% (4/5) in Study CA204009 had them during the first dose.

[2] = Infusion reactions in Study CA204009; assay type: in vivo, human
From the text: as §1
(§2) The maximum infusion rate of 2 ml/min was initially explored in the phase 1 and 2 elotuzumab clinical trials. However, the phase 2 portion of the CA204003 (1703) and the CA204009 studies allowed an infusion rate escalation in subjects without infusion reactions for a minimum of 4 cycles of study therapy at 2 ml/min. The infusion rates are allowed to increase by 1 ml/min per cycle, up to 5 ml/min.
(§3) Preliminary safety data of the 5 ml/minute infusion rate are based on an analysis of subjects who escalated the elotuzumab infusion to 5 ml/minute in the CA204003 (1703) and CA204009 studies. In the phase 2 portion of the CA204003 (1703) study, 33% of all study infusions and 42.5% of subjects received infusions at 5 ml/min. In subjects who were administered infusions ≤2 ml/min, there were 7 grade 1-2 infusion reactions, and 1 grade 3-4 infusion reaction. […] In the randomized phase 2 CA204009 study, 27% of all subjects and 9% of all infusions on the investigational arm received infusions at 5 ml/min.

[3] = Infusion reactions by infusion rate, phase 2 portion of CA204003 (1703); assay type: in vivo, human
Description: as §2, §3

[4] = system: primary multiple myeloma cells; conditions: in the presence of peripheral lymphocytes; cited from earlier work
NK cells = conditions: independent of the Fc portion of the antibody; cited from earlier work
[5] = 10 and 20 mg/kg in combination with lenalidomide; cited from earlier work
multiple myeloma = conditions: Ph II, patients administered pomalidomide; cited from earlier work
[6] = system: relapsed and refractory multiple myeloma; conditions: MM-002, cited from earlier work
[7] = system: relapsed and refractory MM; conditions: cited from earlier work
[8] = 38 subjects, including 22 with dexamethasone added

T1 sequence (Q9NQ25 23-335): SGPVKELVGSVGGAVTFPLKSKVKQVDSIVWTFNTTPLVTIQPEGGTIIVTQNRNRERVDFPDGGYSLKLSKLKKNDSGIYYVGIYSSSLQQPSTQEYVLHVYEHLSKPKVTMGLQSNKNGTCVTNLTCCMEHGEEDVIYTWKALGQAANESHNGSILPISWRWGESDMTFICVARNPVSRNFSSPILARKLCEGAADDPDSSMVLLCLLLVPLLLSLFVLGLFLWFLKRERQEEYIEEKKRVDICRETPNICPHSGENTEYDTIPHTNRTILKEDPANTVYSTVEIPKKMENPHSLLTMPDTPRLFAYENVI

## Elotuzumab: humanized monoclonal IgG1 antibody directed against CS-1; VL SEQ ID NO:1, VH SEQ ID NO:2
SLAMF7
  saturation of SLAMF7 on bone marrow plasma cells: complete saturation
[1]
  median duration of interruption: 25 min
  patients discontinued due to infusion reactions: 1%
  patients requiring interruption of administration due to infusion reaction: 5%
  patients with Grade 3 infusion reactions: 1%
  patients with infusion reaction who had it during the first dose: 70%
[1]; with lenalidomide and dexamethasone
  patients with infusion reactions: approximately 10%
[2]
  median duration of interruption: 40 min
  patients discontinued due to infusion reactions: none
  patients requiring interruption of administration: 20%
  patients with Grade 3 infusion reactions: no patients
  patients with infusion reaction who had it during the first dose: 80%
[2]; subjects reaching infusion rates >2 ml/min
  infusion reactions: no infusion reactions of any grade
[2]; with bortezomib and dexamethasone
  patients with infusion reactions: 7%
[3]; infusion rates >2 ml/min
  grade 3-4 infusion reactions: no grade 3-4 infusion reactions
  number of grade 1-2 infusion reactions: 1
[3]; infusions ≤2 ml/min
  number of grade 1-2 infusion reactions: 7
  number of grade 3-4 infusion reactions: 1
[4]
  ADCC: induces significant antibody-dependent cellular cytotoxicity (ADCC)
NK cells
  NK cell activation: activate NK cells by up-regulation of CD69 and granzyme B expression
[5]
  steady-state Cmin: above 70 μg/mL

## Nc1cccc2c1C(=O)N(C1CCC(=O)NC1=O)C2=O (racemic) [Pomalidomide, (RS)-4-amino-2-(2,6-dioxo-piperidin-3-yl)-isoindole-1,3-dione]
Multiple myeloma
  median progression free survival: 11.6 months
  overall response rate: 63%
  patients achieving VGPR or CR: 33%
[6]
  Grade 3/4 anemia: 24%
  Grade 3/4 neutropenia: 48%
  Grade 3/4 thrombocytopenia: 22%
  ORR (≥PR): 18%
  fatigue: 11%
  frequency of febrile neutropenia: 5%
  incidence of DVT: 3%
  median OS: 13.6 months
  median response duration: 10.7 months
  pneumonia: 15%
[6]; pomalidomide 4 mg/day d1-21 of 28, dexamethasone 40 mg/week, median follow-up 14.2 months
  median PFS: 2.7 months
[7]; 5 mg daily Days 1-21 of 28-day cycle
  number of DLTs (Grade 4 neutropenia): 4
[7]; 38 subjects, 2-5 mg
  treatment-emergent Grade 3/4 anemia: 21%
  treatment-emergent Grade 3/4 fatigue: 16%
  treatment-emergent Grade 3/4 neutropenia: 53%
  treatment-emergent Grade 3/4 thrombocytopenia: 18%
[7]; [8]
  subjects achieving CR: 3%
  subjects achieving ≥MR or better: 42%
  subjects achieving ≥PR: 21%
[7]; Days 1-21 of 28-day cycle
  MTD: 4 mg/day
